Reference: publication PMC2669294, “The Spliceosomal Phosphopeptide P140 Controls the Lupus Disease by Interacting with the HSC70 Protein and via a Mechanism Mediated by γδ T Cells” (PLoS ONE, 2009)
Non-standard residues stand in square brackets, D forms with d. Residues, ends and D or L forms follow the SMILES beside them. No end group written: not given here. pS = N[C@@H](COP(=O)(O)O)C(=O)O

Tests used:
[1] = target: HSC70 (heat-shock cognate 71-kDa protein) (UniProt P63017); assay: biotin-peptide on cells, lysis, avidin-agarose pull-down; settings: reference: non-phosphorylated biotin-peptide 131-151; sites S140
Recombinant bovine HSC70 [2] = target: T1, Recombinant bovine HSC70 (Bos taurus, UniProt P19120); assay: Surface plasmon resonance, direct binding of peptides to immobilized HSC70; settings: SPR BIAcore 3000, HSC70 immobilized via thiol groups on CM5, HBS-EP pH 7.4, 25°C, peptide 1.56 to 12.5 µM, 1:1 Langmuir model; for kon: read-out: association rate constant (kon); for koff: read-out: dissociation rate constant (koff)
T1 construct: purchased Stressgen
T1 sequence (P19120 whole entry): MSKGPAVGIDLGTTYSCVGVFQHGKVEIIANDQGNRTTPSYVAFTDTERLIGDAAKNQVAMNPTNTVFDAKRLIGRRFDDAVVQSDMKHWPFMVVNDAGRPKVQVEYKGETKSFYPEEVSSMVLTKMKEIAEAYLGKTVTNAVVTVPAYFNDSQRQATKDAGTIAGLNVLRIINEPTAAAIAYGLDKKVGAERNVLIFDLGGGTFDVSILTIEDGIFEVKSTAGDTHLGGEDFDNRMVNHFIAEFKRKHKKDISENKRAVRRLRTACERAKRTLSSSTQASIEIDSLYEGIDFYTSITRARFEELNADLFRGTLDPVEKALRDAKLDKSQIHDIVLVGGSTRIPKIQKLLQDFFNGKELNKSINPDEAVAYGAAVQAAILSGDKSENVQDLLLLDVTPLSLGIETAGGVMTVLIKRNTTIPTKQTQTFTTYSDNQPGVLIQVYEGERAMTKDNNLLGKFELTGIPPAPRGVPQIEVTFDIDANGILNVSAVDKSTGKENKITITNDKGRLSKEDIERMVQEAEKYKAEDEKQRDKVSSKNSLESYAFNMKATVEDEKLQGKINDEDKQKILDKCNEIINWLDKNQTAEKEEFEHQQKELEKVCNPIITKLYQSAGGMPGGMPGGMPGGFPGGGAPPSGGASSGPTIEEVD
Description: To assess P140 binding to HSC70, we investigated the binding parameters and kinetics by surface plasmon resonance. HSC70 was immobilized onto the sensor chip via one of its four thiol groups, and different concentrations of P140 and 131–151 peptides were injected in the flux followed by a dissociation phase (see the overlay surface plasmon resonance plots of the raw data in Figure 1B). […] Similar data were obtained when biotinylated P140 was on the chip and HSC70 in solution. Thus, in this in vitro system, both peptides bind with medium affinity (µM range) to HSC70. […] Of significant importance, no binding was observed between P140 and Hsp70.
BIAcore 3000 system (Biacore AB) was used to evaluate the binding of P140 peptide to HSC70 protein. Sensor chip CM5, surfactant P20, amine coupling kit containing N-hydroxysuccinimide (NHS) and N-ethyl-N′-dimethylaminopropyl carbodiimide (EDC), 2-(2-pyridinyldithio)ethaneamine (PDEA) and ethanolamine were from Biacore AB. Biosensor assays were performed with HBS-EP buffer as running buffer (10 mM HEPES, 150 mM NaCl, 3 mM EDTA, 0.005% surfactant P20, pH 7.4). The different compounds were diluted in the running buffer. The sensor chip surface was regenerated after each experiment by injecting 10 µL of 10 mM HCl. Recombinant bovine HSC70 (Stressgen) was immobilized on flow cells of a CM5 sensor chip through its thiol groups using 35 µL PDEA in 50 mM borate buffer, pH 8.3 on the NHS/EDC-activated matrix. Then, 35 µL of HSC70 (100 µg/mL in formate buffer, pH 4.3) were injected until a response of 13,000 response units (RU) corresponding to 13 ng/mm^2 of HSC70 was immobilized. Twenty µL of a 50 mM cysteine/1 M NaCl solution was used to saturate unoccupied sites on the chip. The direct binding measurement of P140 peptides to HSC70 was carried out at 25°C with a constant flow rate of 20 µL/min. P140 peptide and analogues were injected in the flux at different concentrations for 3 min, followed by a dissociation phase of 3 min. The kinetic parameters were calculated using the BIAeval 3.1 software on a personal computer. Analysis was performed using the simple 1∶1 Langmuir binding model. The specific binding profiles were obtained after subtracting the response signal from the control empty channel and from blank-buffer injection. The fitting to each model was judged by the χ square value and randomness of residue distribution compared to the theoretical model.

[3] = Solubility limit by dynamic light scattering; format: physicochemical
Description: The solubility of P140 and 131–151 peptides was determined at 20 and 37°C using dynamic light scattering measurements. […] The integrity of P140, as measured in saline and PBS by high-performance liquid chromatography from the area of the peak corresponding to the intact peptide, remained intact during at least 60 days at 37°C (Figure 2D).
The synthesis and purification of P140 peptide (RIHMVYSKRpSGKPRGYAFIEY; produced under Good Manufacturing Practice conditions), and of peptides 131–151 ([…]) and ScP140 (YVSRYFGpSAIRHEPKMKIYRG) were described previously, [3], [7]. For the biotin-labeled peptides, the biotin moiety was introduced at the end of peptide assembly as a Fmoc-Lys(biotin)-OH derivative. Homogeneity of peptides was checked by analytical high-performance liquid chromatography, and their identity was assessed by matrix-assisted laser desorption and ionization time-of-flight (TOF) mass spectrometry using a Protein TOF apparatus (Bruker Spectrospin). The solubility limits of both peptides in the cell culture medium RPMI 1640, PBS and distilled water were determined at 20 and 37°C using dynamic light scattering measurements.

MRL/lpr mice = test system: MRL/lpr mice; parameters: method as in PMID 2397613; settings: cited from earlier work
SLE patients = settings: human, in vivo; cited from earlier work
recombinant bovine HSC70 [4] = target: T2, recombinant bovine HSC70 (bovine, UniProt P19120 1-650); assay: SPR; BIAcore 3000; recombinant bovine HSC70 immobilised on CM5 chip through its thiol groups (13,000 RU); peptides injected (1.56 to 12.5 µM) 3 min, dissociation 3 min; 25°C, 20 µL/min; HBS-EP pH 7.4; 1:1 Langmuir model; settings: both partners purified
T2 construct: heat-shock cognate HSC70 protein, bovine, recombinant (Stressgen); Immobilised through one of its four thiol groups in the SPR experiment; no tag is named; also called recombinant HSC70 protein; source: bought: Stressgen (recombinant)
T2 sequence (P19120 whole entry): as above

Molecule | kon (Recombinant bovine HSC70 [2]) [M⁻¹ s⁻¹] | koff (Recombinant bovine HSC70 [2]) [s⁻¹] | Kd (recombinant bovine HSC70 [4]) [µM] | other results
U1-70K small nuclear ribonucleoparticle protein 131-151 (from UniProt Q62376) biotin-P140 (pS140) |  |  |  | binding against the reference [1]: same
CC[C@H](C)[C@H](NC(=O)[C@H](Cc1ccccc1)NC(=O)[C@H](C)NC(=O)[C@H](Cc1ccc(O)cc1)NC(=O)CNC(=O)[C@H](CCCNC(=N)N)NC(=O)[C@@H]1CCCN1C(=O)[C@H](CCCCN)NC(=O)CNC(=O)[C@H](COP(=O)(O)O)NC(=O)[C@H](CCCNC(=N)N)NC(=O)[C@H](CCCCN)NC(=O)[C@H](CO)NC(=O)[C@H](Cc1ccc(O)cc1)NC(=O)[C@@H](NC(=O)[C@H](CCSC)NC(=O)[C@H](Cc1c[nH]cn1)NC(=O)[C@@H](NC(=O)[C@@H](N)CCCNC(=N)N)[C@@H](C)CC)C(C)C)C(=O)N[C@@H](CCC(=O)O)C(=O)N[C@@H](Cc1ccc(O)cc1)C(=O)O [P140] (HELM PEPTIDE1{R.I.H.M.V.Y.S.K.R.[O=C([C@H](COP(=O)(O)O)N[*:1])[*:2]].G.K.P.R.G.Y.A.F.I.E.Y}$$$$V2.0) | 530 | 0.00388 |  | solubility ([3]; in water): highly soluble
RIHMVYSKRSGKPRGYAFIEY [131–151] | 606 | 0.00407 |  | solubility ([3]; 200 µM-solution in water, PBS and culture medium (RPMI 1640), 20 and 37°C): highly soluble
N=C(N)NCCCCCCC(=O)NC(O)C(=O)NCCCCNCCCN (centres unmarked) [15-deoxyspergualin] |  |  |  | progression of polyclonal B cell activation and lupus nephropathy (MRL/lpr mice): suppressed the progression; treated patients with non-severe infectious episodes (SLE patients): two of three
RIHMVYSKRSGKPRGYAFIEY (also called non-phosphorylated analogue; source: synthetic peptide) [non-phosphorylated peptide 131-151 of the U1-70K snRNP protein] |  |  | 6.72 | 
RIHMVYSKR[pS]GKPRGYAFIEY (pS is the phosphoserine; also called phosphopeptide P140; source: synthetic peptide) [P140 peptide (U1-70K snRNP protein residues 131-151, phosphorylated on Ser140)] |  |  | 7.32 | 
